Test results from ChEMBL document CHEMBL3352675, “Synthetic ω-3 epoxyfatty acids as antiproliferative and pro-apoptotic agents in human breast cancer cells” (2014).
Calls of active or inactive are those of the source. The rule behind the calls is not given here.

Key:
[1] = system: MDA-MB-231; assay: Antiproliferative activity against human MDA-MB-231 cells assessed as reduction in confluence at 40 uM after 48 hrs by crystal violet staining method; assay type: functional, cell-based
[2] = system: MDA-MB-231; assay: Antiproliferative activity against human MDA-MB-231 cells assessed as reduction in confluence at >40 uM after 120 hrs by crystal violet staining method; assay type: functional, cell-based
[3] = system: MDA-MB-468; assay: Antiproliferative activity against human MDA-MB-468 cells assessed as reduction in confluence at 40 uM after 48 hrs by crystal violet staining method; assay type: functional, cell-based
[4] = system: T47D; assay: Antiproliferative activity against human T47D cells assessed as reduction in confluence at 40 uM after 48 hrs by crystal violet staining method; assay type: functional, cell-based
[5] = system: MDA-MB-231; assay: Reduction in ATP production in human MDA-MB-231 cells assessed as ATP level at 40 uM after 48 hrs relative to untreated control; assay type: functional; design: scale not given: the % may be the effect or the level left
[6] = system: T47D; assay: Reduction in ATP production in human T47D cells at 40 uM after 48 hrs; assay type: functional, cell-based
[7] = system: MDA-MB-468; assay: Reduction in ATP production in human MDA-MB-468 cells at 40 uM after 48 hrs; assay type: functional, cell-based
[8] = system: MDA-MB-231; assay: Induction of cell cycle arrest in human MDA-MB-231 cells assessed as reduction in cell accumulation at S phase at 40 uM after 48 hrs by flow cytometry; assay type: functional; settings: MDA-MB-231, 48 h
[9] = system: MDA-MB-231; assay: Induction of cell cycle arrest in human MDA-MB-231 cells assessed as reduction in cell accumulation at G2/M phase at 40 uM after 48 hrs by flow cytometry; assay type: functional; settings: MDA-MB-231, 48 h
[10] = system: MDA-MB-231; assay: Induction of cell cycle arrest in human MDA-MB-231 cells assessed as increase in cell accumulation at […] phase at 40 uM after 48 hrs by flow cytometry; assay type: functional
[11] = system: MDA-MB-231; assay: Reduction in cyclin D1 immunoreactive protein expression in human MDA-MB-231 cells assessed as cyclin D1 level at 40 uM after 48 hrs; assay type: functional
[12] = system: MDA-MB-231; assay: Induction of apoptosis in human MDA-MB-231 cells assessed as increase in caspase 3 activity at 40 uM after 48 hrs; assay type: functional, cell-based
[13] = system: MDA-MB-231; assay: Induction of apoptosis in human MDA-MB-231 cells at 40 uM after 48 hrs by Annexin V-FITC and propidium iodide staining method; assay type: functional
[14] = target: c-Jun N-terminal kinase, JNK (Homo sapiens) (UniProt P45983+P53779+P45984); assay: Induction of JNK phosphorylation in human MDA-MB-231 cells at 40 uM after 48 hrs; assay type: cell-based
[15] = system: MDA-MB-231; assay: Reduction in cell viability in human MDA-MB-231 cells at 1 to 40 uM after 48 to 120 hrs; assay type: functional, cell-based
[16] = system: MDA-MB-231; assay: Antiproliferative activity against human MDA-MB-231 cells assessed as reduction in confluence at 10 uM after 48 hrs by crystal violet staining method; assay type: functional, cell-based
[17] = system: MDA-MB-231; assay: Antiproliferative activity against human MDA-MB-231 cells assessed as reduction in confluence at 10 uM measured over 120 hrs by crystal violet staining method; assay type: functional, cell-based
[18] = system: MDA-MB-468; assay: Antiproliferative activity against human MDA-MB-468 cells assessed as reduction in confluence at 10 uM after 48 hrs by crystal violet staining method; assay type: functional, cell-based
[19] = system: T47D; assay: Antiproliferative activity against human T47D cells assessed as reduction in confluence at 10 uM after 48 hrs by crystal violet staining method; assay type: functional, cell-based
[20] = system: T47D; assay: Reduction in ATP production in human T47D cells at 1 to 40 uM after 48 to 120 hrs; assay type: functional, cell-based
[21] = system: MDA-MB-468; assay: Reduction in ATP production in human MDA-MB-468 cells at 1 to 40 uM after 48 to 120 hrs; assay type: functional, cell-based
[22] = system: MDA-MB-231; assay: Increase in ATP production in human MDA-MB-231 cells at 40 uM after 48 to 120 hrs; assay type: functional, cell-based
[23] = system: MDA-MB-231; assay: Reduction in ATP production in human MDA-MB-231 cells assessed as ATP level at 40 uM after 120 hrs relative to untreated control; assay type: functional; design: scale not given: the % may be the effect or the level left
[24] = system: MDA-MB-231; assay: Reduction in ATP production in human MDA-MB-231 cells at 10 uM after 48 to 120 hrs in presence of 10 uM AUDA; assay type: functional, cell-based
[25] = system: MDA-MB-231; assay: Reduction in ATP production in human MDA-MB-231 cells at 20 uM after 48 to 120 hrs in presence of 10 uM AUDA; assay type: functional, cell-based
[26] = system: MDA-MB-231; assay: Induction of apoptosis in human MDA-MB-231 cells assessed as viable cells level at 40 uM after 48 hrs by Annexin V-FITC and propidium iodide staining method (reference value: 92.6%); assay type: functional
[27] = system: MDA-MB-231; assay: Induction of apoptosis in human MDA-MB-231 cells assessed as early apoptosis cells level at 40 uM after 48 hrs by Annexin V-FITC and propidium iodide staining method (reference value: 0.5 %); assay type: functional
[28] = system: MDA-MB-231; assay: Induction of apoptosis in human MDA-MB-231 cells assessed as late apoptosis cells level at 40 uM after 48 hrs by Annexin V-FITC and propidium iodide staining method (reference value: 3.7%); assay type: functional
[29] = system: MDA-MB-231; assay: Induction of apoptosis in human MDA-MB-231 cells assessed as necrosis cells level at 40 uM after 48 hrs by Annexin V-FITC and propidium iodide staining method (reference value: 3.3%); assay type: functional
[30] = system: MDA-MB-231; assay: Reduction in cell viability in human MDA-MB-231 cells at 1 to 40 uM after 48 to 120 hrs in presence of JNK inhibitor […]; assay type: functional, cell-based
[31] = system: MDA-MB-231; assay: Induction of apoptosis in human MDA-MB-231 cells assessed as increase in caspase 3 activity at 40 uM after 48 hrs in presence of JNK inhibitor […]; assay type: functional, cell-based
[32] = system: MDA-MB-231; assay: Reduction in cell viability in human MDA-MB-231 cells at 1 to 40 uM after 48 to 120 hrs in presence of JNK gene silencing RNA; assay type: functional, cell-based
[33] = system: MDA-MB-231; assay: Induction of apoptosis in human MDA-MB-231 cells assessed as increase in caspase 3 activity at 40 uM after 48 hrs in presence of JNK gene silencing RNA; assay type: functional, cell-based
[34] = system: MDA-MB-231; assay: Reduction in ATP production in human MDA-MB-231 cells at 40 uM after 120 hrs relative to untreated control; assay type: functional, cell-based

CCNC(=O)NCCCCCCCCCCCCCCCCCC(=O)O
inhibition [1]: inactive
inhibition [2]: Active
inhibition [3]: inactive
inhibition [4]: inactive
Activity [5]: 72%
Activity [6]: inactive
Activity [7]: inactive
inhibition at 40 µM [8]: 21%
inhibition at 40 µM [9]: 9%
Activity [10]: 6%
Activity [11]: inactive
Activity [12]: Active
Activity [13]: inactive
Activity [14]: inactive

CCCCC[C@@H]1O[C@@H]1CCCCCCCCCCCCC(=O)O (relative stereo)
Activity [15]: inactive
Activity [12]: inactive

CC(C)(C)NC(=O)NCCCCCCCCCCCCCCCC(=O)O
Activity [5]: inactive
Activity [12]: Active

CC[C@H]1O[C@H]1CCCCCCCCCCCCCCCCC(=O)O (relative stereo)
inhibition [16]: Active
inhibition [17]: Active
inhibition [18]: Active
inhibition [19]: inactive
Activity [20]: inactive
Activity [21]: inactive
inhibition at 40 µM [8]: 33%
inhibition at 40 µM [9]: 30%
Activity [10]: 12%
Activity [11]: 24%
Activity [12]: Active
fold change (FC) [13]: 5
Activity [14]: Active

CCCCCCCC[C@@H]1O[C@@H]1CCCCCCCCCC(=O)O (relative stereo)
Activity [15]: inactive
Activity [22]: Active
Activity [12]: inactive

CC[C@@H]1O[C@@H]1CCCCCCCCCCCCCCCCCC(=O)O (relative stereo)
inhibition [16]: Active
inhibition [17]: Active
inhibition [18]: Active
inhibition [19]: inactive
Activity [20]: inactive
Activity [21]: inactive
inhibition at 40 µM [8]: 42%
inhibition at 40 µM [9]: 19%
Activity [10]: 15%
Activity [11]: 47%
Activity [12]: inactive
Activity [13]: inactive
Activity [14]: Active

CCCNC(=O)NCCCCCCCCCCCCCCCC(=O)O
Activity [5]: inactive
Activity [12]: inactive

CC[C@@H]1O[C@@H]1CCCCCCCCCCCCCCCC(=O)O (relative stereo)
inhibition [16]: Active
inhibition [17]: Active
inhibition [18]: Active
inhibition [19]: inactive
Activity [5]: 45%
Activity [23]: 3.2%
Activity [24]: Active
Activity [25]: inactive
Activity [20]: Active
Activity [21]: Active
inhibition at 40 µM [8]: 49%
inhibition at 40 µM [9]: 38%
Activity [10]: 22%
Activity [11]: 23%
Activity [12]: Active
fold change (FC) [13]: 5
Activity [26]: 27.3%
Activity [27]: 4.1%
Activity [28]: 39.2%
Activity [29]: 29.4%
Activity [30]: inactive
Activity [31]: inactive
Activity [32]: inactive
Activity [33]: inactive
Activity [14]: Active

CCCC(=O)NCCCCCCCCCCCCCCCC(=O)O
Activity [34]: inactive
Activity [12]: inactive

CCCCNC(=O)NCCCCCCCCCCCCCCCC(=O)O
Activity [5]: inactive
Activity [12]: Active

CCNC(=O)NCCCCCCCCCCCCCCCC(=O)O
inhibition [1]: inactive
inhibition [2]: Active
inhibition [3]: inactive
inhibition [4]: inactive
Activity [5]: 72%
Activity [6]: inactive
Activity [7]: inactive
inhibition at 40 µM [8]: 21%
inhibition at 40 µM [9]: 9%
Activity [10]: 6%
Activity [11]: inactive
Activity [12]: Active
Activity [13]: inactive
Activity [26]: 82.6%
Activity [27]: 1.6%
Activity [28]: 8.4%
Activity [29]: 7.3%
Activity [14]: inactive

CCNC(=O)NCCCCCCCCCCCCCCCCC(=O)O
inhibition [1]: inactive
inhibition [2]: Active
inhibition [3]: inactive
inhibition [4]: inactive
Activity [5]: 72%
Activity [6]: inactive
Activity [7]: inactive
inhibition at 40 µM [8]: 21%
inhibition at 40 µM [9]: 9%
Activity [10]: 6%
Activity [11]: inactive
Activity [12]: Active
Activity [13]: inactive
Activity [14]: inactive

CCNC(=O)OCCCCCCCCCCCCCCCC(=O)O
Activity [34]: inactive
Activity [12]: Active
